Assay [1] deals with SRS-A release from lung fragments. Briefly: Inhibition of SRS-A release from sensitized guinea pig lung fragments. The following applies: Cavia porcellus. The format is cell-based, guinea pig (Hartley strain). The method, boiled down:
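Lung fragments from ovalbumin-sensitized male Hartley guinea pigs were preincubated 5 min at 37 °C in Tyrode's, given compound in DMSO for 5 min, then challenged with ovalbumin for 10 min. Released histamine was bioassayed by guinea pig ileum contraction at 30 s. SRS-A was read at 2 min with 10^-6 M pyrilamine against a crude SRS-A standard curve.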

Assay [2] relates to histamine release on anaphylaxis in abdominal cavity. Put plainly: Histamine releasing inhibition test on anaphylaxis in abdominal cavity of rats. It counts as in vivo, rat (Sprague-Dawley strain). The following applies: oral, 3 hours before anaphylaxis; dose not given. How it is done: (§1) SRS-A and histamine releasing inhibition test on anaphylaxis in abdominal cavity of rats.
(§2) Male or female rats (Sprague-Dawley strain, delivered from Charles River, Japan Ltd., Tokyo) of 6-7 week age were used as the test animals. The test animals were devided into a group consisting of 6 animals in one group depending on their body weight. The animals were fasted overnight. The test was conducted by a method according to P. T. Orange et al.: "J. Immunol., Vol. 105", pages 1087-1095 (1970).
(§3) 1 Milliliter each of twofold diluted anti-ovalbumin serm of rat was intraperitoneally injected to each of the test animal so as to have the rat sensitized. 2 Hours after the sensitization, 5 ml of Tyrode's solution containing 2 mg of ovalbumin and 250 micrograms of heparin sodium was intraperitoneally administered to the test animal to cause anaphylaxis. 5 Minutes after, the test animal was stunned by the blow on the head and was exsanguinated and killed by cervical incision. Additional 5 minutes later, the abdominal fluid was collected from the opening of the abdomen. The fluid collected was centrifuged at 4° C., first at 800 rpm, then at 2,500 rpm and the supernatant was collected, and stored at -80° C. until the bioassay was conducted. […]
(§4) The amount of SRS-A and histamine contained in the collected abdominal fluid was measured by a method similar to that employed in Pharmacological test-2.
(§5) Bio-assay of the collected abdominal fluid was conducted by using ileum of guinea pig which was treated with atropine. […] The isotonic contraction of the piece of the ileum was measured at 0.5 g of load by using an isotonic transducer "TD-112S" (manufactured by Nihon Koden Co., Ltd.). The measurements were recorded on an ink-writing recorder.
After stabilization of the contraction reaction due to histmine, the amount of histamine was measured quantitatively by observing the contraction of the piece of the ileum shown within 30 seconds after addition of 0.05-0.4 ml of the abdominal fluid. […]

The subject of assay [3] is SRS-A release on anaphylaxis in abdominal cavity. Briefly: SRS-A releasing inhibition test on anaphylaxis in abdominal cavity of rats. The format is in vivo, rat (Sprague-Dawley strain). The following applies: oral, 3 hours before anaphylaxis; dose not given. How it is done:
as §1, §2, §3, §4, §5
The amount of SRS-A was measured by using the value of contraction shown after the addition of 0.2-0.5 ml of the collected fluid in the presence of 10^-7 M of pyrilamine (antihistaminic agent), said value of the contraction was calculated as contraction activity caused by 5 ng of histamine. […]

Setting [4] is: Table 2, dose 3 μM, read-out: Inhibition ratio (%) SRS-A.
Where [5] appears, read: Table 2, dose 30 μM, read-out: Inhibition ratio (%) SRS-A.
The mark [6] stands for this setting: Table 2B, 3 μM, read-out: Inhibitory activities on SRS-A (%).
Setting [7] is: Table 2B, 30 μM, read-out: Inhibitory activities on SRS-A (%).

Like-named read-outs stand apart in the source and are kept apart here.

Consider `COC1=CC(=O)C(OC)=C(CCCCCC2=C(OC)C(=O)C=C(OC)C2=O)C1=O` [Test Compound No. 9, 2,2'-Pentamethylenebis(3,6-dimethoxy-1,4-benzoquinone)], for which the inhibition at 3 µM in assay [1] (setting [4]) and in assay [1] (setting [6]) was 50.3% each time. In addition, the inhibition at 30 µM in assay [1] (setting [5]) is over 94.8%; in assay [1] (setting [7]) it was 94.2%. In addition, the “Inhibitory rate (%) Histamine” value in assay [2] is -3.6%. In addition, the “Inhibitory rate (%) SRS-A” value in assay [3] is recorded as 4.9%.
As for `COC1=CC(=O)C(OC)=C(CCCCCCCCCC2=C(OC)C(=O)C=C(OC)C2=O)C1=O` [Test Compound No. 13, 2,2'-Nonamethylenebis(3,6-dimethoxy-1,4-benzoquinone)], the inhibition at 3 µM in assay [1] (setting [4]) and in assay [1] (setting [6]) was 22.4% in each case. In addition, the inhibition at 30 µM in assay [1] (setting [5]) and in assay [1] (setting [7]) was 43.9% throughout. Also, the “Inhibitory rate (%) Histamine” value in assay [2] is listed as 10.9%. In assay [3], the “Inhibitory rate (%) SRS-A” value stood at 25.8%.
Take `COC1=CC(=O)C(OC)=C(CCCCCC#CCCCCCC2=C(OC)C(=O)C=C(OC)C2=O)C1=O` [Test Compound No. 16, 2,2'-(6-Dodecynylene)bis(3,6-dimethoxy-1,4-benzoquinone)]: the inhibition at 3 µM in assay [1] (setting [4]) and in assay [1] (setting [6]) was 23.4% in each case. For the same molecule, the inhibition at 30 µM in assay [1] (setting [5]) and in assay [1] (setting [7]) was 43.9% each time. The “Inhibitory rate (%) Histamine” value in assay [2] amounted to 8.0%. In addition, the “Inhibitory rate (%) SRS-A” value in assay [3] was 15.5%.

These data come from patent US5220042A, “1,4-benzoquinone derivatives and benzene derivatives, and process for preparing the same” (priority 1984, dated 1993).
